The GI50 is the concentration giving 50% growth inhibition. The term TGI denotes the concentration at which net growth stops.

This is an account of results in PubChem BioAssay (NCI).

Among the test systems are NCI-H522 lung; KM12 colon; MCF7 breast; NCI-H23 lung; HL-60(TB) leukemia; M14 melanoma; U251 CNS; OVCAR-8 ovarian; OVCAR-5 ovarian; CCRF-CEM leukemia.
Common to all, as to test: DTP human tumour cell line panel, 48 h

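Each compound was tested at five concentrations against cells in 96-well plates for 48 hours. GI50 = concentration required for 50% inhibition of growth. TGI marks complete inhibition of growth.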

With `O=C1Nc2ccc(O)cc2/C1=C\c1ccncc1`, the GI50 in the assay with NCI-H522 lung is 11.5 µM; in the assay on KM12 colon, 16.9 µM; in the assay with MCF7 breast it was 4.18 µM; in the assay with NCI-H23 lung it was 25.1 µM; in the assay with HL-60(TB) leukemia it was 36 µM; with M14 melanoma, 15.8 µM. In addition, the GI50 in the assay on U251 CNS is 10.3 µM; with OVCAR-8 ovarian it was 25.4 µM; in the assay with OVCAR-5 ovarian, 27.2 µM. The total growth inhibition concentration (TGI) with NCI-H522 lung is 38.2 µM; with KM12 colon it was 46.4 µM; in the assay with MCF7 breast, 38.2 µM; with NCI-H23 lung, 62.4 µM; with HL-60(TB) leukemia, more than 100 µM; with M14 melanoma it was 39.6 µM. For the same molecule, the concentration for total growth inhibition (TGI) in the assay on U251 CNS was 23.1 µM; in the assay with OVCAR-8 ovarian, more than 100 µM; in the assay on OVCAR-5 ovarian, 57 µM.
Take `Cc1cncc(-c2nc(NCCc3c[nH]c4ccccc34)c3ncn(C(C)C)c3n2)c1`: the GI50 in the assay with NCI-H522 lung was 5.66 µM; with CCRF-CEM leukemia it was 2.99 µM; with KM12 colon it was 3.36 µM; in the assay with MCF7 breast, 4.05 µM; in the assay on NCI-H23 lung, 5.34 µM; in the assay on M14 melanoma it was 3.94 µM. In addition, the GI50 in the assay with U251 CNS was 4.96 µM; in the assay with OVCAR-8 ovarian it was 4.6 µM; in the assay on OVCAR-5 ovarian, 3.45 µM. For the same molecule, the concentration for total growth inhibition (TGI) was found to be 23.2 µM in the assay with NCI-H522 lung; 9.84 µM in the assay with CCRF-CEM leukemia; 12.8 µM in the assay with KM12 colon; 15.6 µM with MCF7 breast; 19.4 µM in the assay on NCI-H23 lung; 16.9 µM in the assay with M14 melanoma. Besides, the concentration for total growth inhibition (TGI) in the assay with U251 CNS is 39.6 µM; in the assay on OVCAR-8 ovarian, more than 100 µM; in the assay on OVCAR-5 ovarian it was 18.4 µM.
Take `COc1ccc(C2=NN(C=O)C(c3ccc(OS(=O)(=O)c4ccc(C)cc4)c(OC)c3)C2)cc1` (configuration not stated): the GI50 is 4.22 µM in the assay on NCI-H522 lung; 4.05 µM with CCRF-CEM leukemia; 9.23 µM in the assay with KM12 colon; 3.7 µM in the assay with MCF7 breast; 4.58 µM in the assay on NCI-H23 lung; 2.56 µM in the assay on HL-60(TB) leukemia. Further, the figures for the GI50 with M14 melanoma, in the assay on OVCAR-8 ovarian and in the assay with OVCAR-5 ovarian were 3.92 µM, 10.2 µM and more than 100 µM, respectively. Besides, the TGI in the assay with NCI-H522 lung was 90.4 µM; in the assay on CCRF-CEM leukemia it was more than 100 µM; with KM12 colon it was more than 100 µM; in the assay on MCF7 breast, more than 100 µM; with NCI-H23 lung it was more than 100 µM; in the assay on HL-60(TB) leukemia, more than 100 µM. In addition, the total growth inhibition concentration (TGI) in the assay on M14 melanoma, with OVCAR-8 ovarian and in the assay with OVCAR-5 ovarian was more than 100 µM in each case.
Regarding `Cc1cc(O[C@@H]2O[C@@H](C)[C@H](O)[C@@H](O)[C@H]2O)c2c3c(c(O[C@@H]4O[C@@H](C)[C@H](O)[C@@H](O)[C@H]4O)cc2c1)C(=O)c1c(O)cccc1C3=O`, the GI50 with CCRF-CEM leukemia, with KM12 colon, in the assay on MCF7 breast, with NCI-H23 lung, with HL-60(TB) leukemia and with M14 melanoma was more than 30 µM in each case. The GI50 in the assay with U251 CNS, in the assay with OVCAR-8 ovarian and in the assay on OVCAR-5 ovarian was more than 30 µM each time. Further, the total growth inhibition concentration (TGI) in the assay with CCRF-CEM leukemia, with KM12 colon, in the assay with MCF7 breast, with NCI-H23 lung, in the assay with HL-60(TB) leukemia and in the assay with M14 melanoma was more than 30 µM throughout. Further, the TGI in the assay on U251 CNS, in the assay on OVCAR-8 ovarian and in the assay on OVCAR-5 ovarian was more than 30 µM throughout.
With `O=c1c2cccc(F)c2sc2c(NCCCNCCO)nc3ccccc3c12`, the GI50 with NCI-H522 lung was 1.76 µM; in the assay with CCRF-CEM leukemia, 1.41 µM; with KM12 colon, 1.61 µM; with MCF7 breast, 1.14 µM; in the assay on NCI-H23 lung it was 1.54 µM; in the assay with HL-60(TB) leukemia, 1.92 µM. Besides, the GI50 in the assay with M14 melanoma was 1.53 µM; in the assay with OVCAR-5 ovarian it was 1.65 µM. For the same molecule, the concentration for total growth inhibition (TGI) with NCI-H522 lung was found to be 3.69 µM; in the assay with CCRF-CEM leukemia, 3.87 µM; in the assay with KM12 colon it was 3.04 µM; in the assay with MCF7 breast it was 2.53 µM; in the assay on NCI-H23 lung, 2.99 µM; in the assay with HL-60(TB) leukemia, 3.91 µM. For the same molecule, the TGI with M14 melanoma was 2.98 µM; in the assay with OVCAR-5 ovarian, 3.07 µM.
As to `CCCCOC(=O)/C=C\C(=O)NC(N)=O`, the GI50 was 15.9 µM with CCRF-CEM leukemia; 25 µM in the assay with KM12 colon; 13 µM in the assay with MCF7 breast; 25.1 µM in the assay with NCI-H23 lung; 22.8 µM with HL-60(TB) leukemia; 17.2 µM in the assay on M14 melanoma. Moreover, the GI50 in the assay with U251 CNS is 26.2 µM; in the assay on OVCAR-8 ovarian, 29.7 µM; in the assay with OVCAR-5 ovarian, 25.6 µM. The TGI in the assay with CCRF-CEM leukemia is 35.8 µM; in the assay with KM12 colon it was 66.9 µM; in the assay with MCF7 breast, 76.7 µM; in the assay with NCI-H23 lung it was 72.5 µM; in the assay on HL-60(TB) leukemia it was 49.9 µM; in the assay on M14 melanoma, 36.6 µM. For the same molecule, the results for the total growth inhibition concentration (TGI) in the assay on U251 CNS, in the assay on OVCAR-8 ovarian and in the assay on OVCAR-5 ovarian were 89.3 µM, more than 100 µM and 81.7 µM, respectively.
`O=C(/C=C\c1cc(Br)ccc1O)/C=C/c1cc(Br)ccc1O`: the concentration for 50% growth inhibition (GI50) in the assay on CCRF-CEM leukemia was 0.282 µM; in the assay with KM12 colon it was 1.25 µM; in the assay with MCF7 breast, 0.339 µM; in the assay on NCI-H23 lung it was 0.87 µM; in the assay on HL-60(TB) leukemia, 0.385 µM; with M14 melanoma, 0.651 µM. In addition, the GI50 in the assay on U251 CNS was 0.383 µM; in the assay with OVCAR-8 ovarian, 0.345 µM; in the assay on OVCAR-5 ovarian it was 1.67 µM. Further, the concentration for total growth inhibition (TGI) stood at 10.5 µM with CCRF-CEM leukemia; 2.72 µM with KM12 colon; 2.13 µM with MCF7 breast; 2.68 µM in the assay on NCI-H23 lung; 4.26 µM in the assay on HL-60(TB) leukemia; 3.08 µM with M14 melanoma. Also, the concentration for total growth inhibition (TGI) in the assay with U251 CNS came out at 1.55 µM; in the assay with OVCAR-8 ovarian, 11.6 µM; in the assay with OVCAR-5 ovarian, 3.33 µM.
With `C=C1C(=O)O[C@@H]2C[C@@H]1CC[C@]1(C)O[C@H]1CC/C(C)=C/CC[C@@]2(C)O`, the GI50 was 27.2 µM in the assay on NCI-H522 lung; more than 100 µM in the assay on CCRF-CEM leukemia; 16.2 µM in the assay with KM12 colon; 15.2 µM in the assay with MCF7 breast; 20.9 µM in the assay on NCI-H23 lung; 16.8 µM in the assay on M14 melanoma. Besides, the GI50 in the assay on U251 CNS is 15.5 µM; in the assay on OVCAR-8 ovarian it was 22.3 µM; in the assay with OVCAR-5 ovarian, 28.6 µM. The TGI with NCI-H522 lung was more than 100 µM; in the assay with CCRF-CEM leukemia it was more than 100 µM; with KM12 colon, 34.3 µM; in the assay with MCF7 breast it was 36 µM; in the assay with NCI-H23 lung it was 58.4 µM; with M14 melanoma, 35.3 µM. Besides, the TGI stood at 28.9 µM in the assay on U251 CNS, 57.8 µM with OVCAR-8 ovarian and 96 µM with OVCAR-5 ovarian.
